Measurements as given in US20180099031A1, “DIABETES TREATMENT” (BETH ISRAEL DEACONESS MEDICAL CENTER, priority 2013, published 2018).

Tested on: New onset diabetic NOD mice
Experiment: α1 anti-trypsin treatment of new onset diabetic NOD mice, blood glucose levels
Format: in vivo
Source text: Female NOD (NOD/LtJx) mice and NOD.SCID (NOD.CB17-Prkdcscid/J) mice were purchased from Jackson Laboratories (Bar Harbor, Me.) at 4 wks of age and maintained under pathogen-free conditions at the Harvard Institutes of Medicine (Boston, Mass.). The Harvard Medical School institutional review board approved all animal studies.
Blood glucose levels of NOD mice were monitored twice weekly with the Accu-Check blood glucose monitor system (Roche, Indianapolis, Ind.). When non-fasting blood glucose levels were in excess of 200 mg/dl on three consecutive measurements a diagnosis of new onset of diabetes was made. Mice with blood glucose levels between 250 to 350 mg/dl were used for the experiment described below. […] The 25% residual beta cell mass is similar to that found in newly diagnosed patients with T1DM.
New onset diabetic NOD mice were divided into two groups and treated with α1 anti-trypsin while simultaneously receiving intense insulin treatment (Group 1) or implantable insulin pellets (Group 2).
For the animals in Group 1, insulin doses were calibrated on the basis of three blood glucose measurements per day. The goal was to maintain blood glucose levels between 100-160 mg/dl. For blood glucose levels in excess of 160 mg/dl, NPH insulin was administered i.p. in doses ranging from 1 to 4 International Units depending upon the magnitude of hyperglycemia. For blood glucose level between 160 and 200 mg/dl, 1 IU was given. For blood glucose levels between 200 and 250 mg/dl, 2 IU of NPH insulin were given. For blood glucose levels between 250 and 300 mg/dl, 2 IU of NPH insulin were given. For blood glucose levels between 300 and 350 mg/dl, 3 IU of NPH insulin were given. For blood glucose levels in excess of 350 mg/dl, 4 IU of NPH insulin were given. Mice with high blood glucose levels in excess of 400 mg/dl for 2 days also received 0.2-0.4 ml warm normal saline subcutaneously in order to treat glycosuria-associated dehydration.
The animals in Group 2, LinBit™ sustained release insulin implants were used for management of hyperglycemia. LinBit™ sustained release insulin implants were purchased from LinShin Canada Inc. The LinBit™ implants (3-mm in length and 2 mm in diameter) were made from an admixture of insulin and micro-recrystallized palmitic acid and were erodible in vivo after being placed subcutaneously. The insulin release rate was about 0.1 U/day/implant for the time period over 2-4 weeks.
In our experiments, one or 2 LinBit™ implants were placed subcutaneously under the mid dorsal skin in newly onset diabetic mice with 3 previous measurements of blood glucose levels >200 mg/dL. The mice were anesthesized with ketamine/xylazine and the hair on the dorsal skin from a spot about 1 cm^2 was clipped using a small scissors with curved tips. […]

α1 anti-trypsin: Aralast NP, a human α1-proteinase inhibitor derived from pooled human plasma, purchased from Baxter
blood glucose levels (Group 1: with intense insulin therapy (NPH insulin i.p., three glucose measurements per day), Aralast NP 2 mg i.p. every 3 days, five injections, experiment 60-100 days, FIG. 1): fell to normoglycemic levels shortly after treatment began and remained at normal levels for the entire duration of the experiment
blood glucose levels shortly after treatment began (Group 2: with LinBit insulin implants s.c., Aralast NP 2 mg i.p. every 3 days, five injections, FIG. 2): fell to normoglycemic levels shortly after treatment began
effect on diabetic state (glucose levels maintained within normal limits (50-120 mg/dL) by intensive insulin therapy): curative effect
effect on diabetic state (hyperglycemic state managed by subcutaneously placed insulin pellets): less effective
